Test: molar heat capacity at constant pressure
Conditions: 101.33 kPa, Crystal 2, Vacuum adiabatic calorimetry

Cc1ccc(-c2ccccc2)cc1 [4-methylbiphenyl]
Conditions | molar heat capacity at constant pressure [J/K/mol]
8.42 K | 3.698
8.7 K | 3.996
8.96 K | 4.244
9.47 K | 4.835
9.97 K | 5.433
10.28 K | 5.778
10.67 K | 6.273
11.06 K | 6.777
11.44 K | 7.338
11.83 K | 7.812
12.21 K | 8.286
12.59 K | 8.722
12.96 K | 9.194
13.35 K | 9.76
13.72 K | 10.44
14.09 K | 10.74
14.46 K | 11.37
14.83 K | 11.81
15.2 K | 12.22
15.56 K | 12.8
15.92 K | 13.35
16.28 K | 13.95
16.65 K | 14.46
17.01 K | 14.64
17.37 K | 15.38
17.72 K | 16.09
18.08 K | 16.37
18.44 K | 17.11
18.79 K | 17.51
19.88 K | 19.13
20.58 K | 20.29
21.36 K | 21.32
22.14 K | 22.38
22.91 K | 23.6
23.69 K | 24.61
24.46 K | 25.76
25.23 K | 26.8
26 K | 27.57
26.76 K | 28.86
27.53 K | 30.07
28.29 K | 30.9
29.05 K | 32.05
29.81 K | 33.03
30.57 K | 34.28
31.33 K | 35.24
32.09 K | 36.41
32.86 K | 36.83
33.62 K | 38.31
34.37 K | 39.14
35.13 K | 39.93
35.88 K | 41.05
36.64 K | 41.53
37.39 K | 42.34
38.14 K | 43.78
38.9 K | 44.06
39.65 K | 45.4
40.4 K | 45.99
41.15 K | 46.64
41.9 K | 47.81
42.65 K | 48.69
43.4 K | 49.76
44.15 K | 50.64
44.91 K | 50.57
45.66 K | 51.28
46.41 K | 52.33
47.16 K | 53.31
47.91 K | 53.96
48.65 K | 55.09
49.4 K | 56.25
50.15 K | 56.83
50.9 K | 57.26
51.65 K | 58.12
52.4 K | 59.37
53.15 K | 59.9
53.9 K | 60.72
54.64 K | 61.66
55.39 K | 62.7
56.14 K | 63.64
56.89 K | 63.48
57.64 K | 64.25
58.39 K | 64.5
59.13 K | 64.98
59.88 K | 65.47
60.63 K | 66.03
61.37 K | 65.92
62.12 K | 66.39
62.86 K | 67.01
63.6 K | 67.59
64.35 K | 67.75
65.09 K | 68.24
65.83 K | 68.99
66.57 K | 69.46
67.32 K | 69.91
68.06 K | 70.28
68.8 K | 70.75
69.54 K | 72.08
70.28 K | 72.22
71.18 K | 72.29
72.22 K | 73.13
73.27 K | 74.21
74.32 K | 74.62
75.37 K | 75.51
76.42 K | 75.54
77.47 K | 76.16
78.51 K | 77.53
78.8 K | 78.32
79.56 K | 77.92
80.6 K | 79.11
81.65 K | 79.67
82.17 K | 81.46
83.21 K | 81.22
84.78 K | 82.63
85.83 K | 84.24
87.34 K | 85.25
88.37 K | 86.4
89.4 K | 87.09
90.43 K | 87.85
91.47 K | 88.19
92.5 K | 89.19
93.53 K | 89.62
94.55 K | 90.59
95.58 K | 91.13
96.61 K | 92.3
97.64 K | 93.83
98.66 K | 92.61
99.69 K | 94.23
100.72 K | 95.15
101.74 K | 95.13
102.77 K | 95.55
104.82 K | 96.61
105.84 K | 97.41
106.86 K | 98.57
107.88 K | 99.36
108.9 K | 99.57
109.93 K | 100.46
110.95 K | 100.63
111.97 K | 100.49
112.99 K | 102.03
114.01 K | 102.56
115.02 K | 103.36
116.04 K | 104.67
117.06 K | 104.77
118.08 K | 104.33
119.1 K | 105.95
120.12 K | 106.87
121.14 K | 106.67
122.15 K | 107.47
123.17 K | 108.38
124.18 K | 108.38
125.2 K | 108.94
126.21 K | 110.22
127.23 K | 110.82
128.23 K | 111.43
129.25 K | 111
130.26 K | 112.24
131.27 K | 113.68
132.28 K | 113.17
133.29 K | 114.17
134.3 K | 115.39
135.31 K | 115.98
136.32 K | 115.79
137.33 K | 115.95
138.33 K | 116.76
139.34 K | 118.07
140.34 K | 119.05
141.35 K | 119.04
142.35 K | 119.96
143.36 K | 120
144.35 K | 120.48
145.36 K | 120.67
146.36 K | 122
147.36 K | 122.17
148.36 K | 124.22
149.36 K | 124.87
150.36 K | 125.07
151.36 K | 125.72
153.66 K | 127.07
154.92 K | 127.26
155.92 K | 127.72
156.91 K | 128.68
157.91 K | 129.05
158.9 K | 129.98
159.89 K | 130.91
162.88 K | 133.43
163.87 K | 132.72
164.87 K | 133.55
165.85 K | 133.77
166.84 K | 134.91
167.83 K | 135.89
169.79 K | 137.42
170.78 K | 137.22
171.76 K | 137.79
172.74 K | 138.45
173.73 K | 139.11
174.71 K | 140.53
175.69 K | 140.7
176.68 K | 141.47
177.66 K | 142.43
178.64 K | 143.15
179.62 K | 143.76
180.6 K | 144.25
181.58 K | 145.06
182.56 K | 146.17
183.54 K | 146.07
184.52 K | 146.77
185.47 K | 148
186.45 K | 148.42
187.42 K | 148.71
188.4 K | 149.77
189.37 K | 150.31
190.34 K | 151.29
191.32 K | 152.46
192.29 K | 153.07
193.26 K | 153.26
194.23 K | 154.48
195.2 K | 154.92
196.17 K | 155.18
197.14 K | 156.43
198.1 K | 156.66
199.07 K | 156.85

Reference: the NIST ThermoML archive (doi:10.1016/j.jct.2010.05.002)
